Laboratory results: patent US20260022118A1, “HETEROCYCLIC COMPOUNDS AS NRAS INHIBITORS” (Board of Regents, The University of Texas System, priority 2023, published 2026)
pIC50, pKd: −log10 of the molar value.

What was measured:
[1] = target: NRAS G12D C118S (Homo sapiens (Human), UniProt P01111, C118S/G12D); assay: NRas G12D Surface Plasmon Resonance (SPR) binding assay; details: Avi-tagged biotinylated NRAS G12D C118S on streptavidin chip, 25° C., 1:1 kinetic or steady-state fit
Protocol: NRas G12D Surface Plasmon Resonance (SPR) Binding Assay
This Example illustrates that exemplary compounds and salts thereof described herein bind to NRAS G12D as measured by surface plasmon resonance (SPR).
Two liters of 1.03× running buffer (1.03×HBS-P+pH 7.4, containing 0.0103 M HEPES, 0.1545 M NaCl, 0.0515% v/v Surfactant P20 (Cytiva®, BR100671); 5.15 mM MgCl2 (Invitrogen, AM9530G); 0.515 mM TCEP, pH 8.0 (GoldBio®, TCEP25)) was prepared and filter sterilized using a 0.22 μm filter. A 1-L volumetric flask was filled partway with this buffer. A 30-mL volumetric flask was used to measure 30 mL of 100% DMSO (Sigma Aldrich®, 41639-100ML) which was added to the 1-L flask. The solution in the 1-L flask was brought up to 1 L with 1.03× buffer, resulting in a 1.0× assay running buffer containing 1.0×HBS-P+, 5 mM MgCl2, […], and 3% DMSO. Remaining 1.03× buffer was used for preparation of samples and immobilization running buffer.
Samples were prepared in a standard conical-bottomed 384-well microplate by adding 2 μL 10 mM DMSO cpd stock to each well, followed by 8 μL DMSO. A control compound was selected based off of its relatively “fast” kinetics that could be fitted by 1:1 kinetic fitting, as well as by steady-state fitting. Control wells for periodic injection to assess protein activity throughout the assay were also assembled, by diluting 10 mM compound 1:30 in DMSO, then adding 20 μL to the appropriate wells, such that the final concentration of compound would be 10 μM, and the final concentration of DMSO would be 3%. A Biomek™ FXP Laboratory Automation Workstation was used to stamp 20 μL DMSO into all sample wells—minus the control wells—according to the plate map, and then serially dilute 1:3 by mixing and aspirating 10 μL, delivering into the 20 μL of DMSO in the next well, resulting in 10-point serial dilution curves. A Biotek™ Multiflo EL406 Washer Dispenser was used to deliver 80 μL of 1.03× buffer to the compound plate. The plate was mixed 10× by FX, then a final dilution was performed by stamping 18 μL from the compound plate into a 384-well deep-well plate that had also been previously filled with 102 μL 1.03× buffer via the Multiflo. The solution in the deep-well plate was mixed 10× by FX, then sealed with a 384-well microplate foil from Cytiva® (Cytiva® BR100577) and placed on an orbital shaker for 30 minutes at 1000 RPM to ensure complete mixing of the DMSO solution in the buffer. A solvent correction curve was also prepared by making a 4% DMSO solution in 1.03× buffer and diluting in 1.03× buffer such that there were eight solutions of decreasing DMSO concentrations resulting in a high DMSO concentration of 4% and a low concentration of 2% DMSO.
Immobilization running buffer was prepared in a 200-mL volume by diluting 1.03× running buffer prepared above to 1.0×. A Cytiva® Streptavidin chip (Cytiva®, 29104992) was docked into a Biacore™ S200 instrument, and the instrument was then primed three times into the immobilization running buffer. A protein stock of Avi-tagged NRAS G12D C118S was prepared in-house and biotinylated using the Bulk BirA: BirA biotin-protein ligase bulk reaction kit from Avidity (Avidity®, Bulk BirA). Upon completion of the biotinylation reaction, Amicon® ultra 0.5-mL Centrifugal Filters with a MWCO of 3 k Da (Millipore® UFC500396) were used to reduce the free biotin concentration below 0.1 μM in the protein sample over the course of eight desalting cycles, according to the manufacturer's protocol. Resulting protein concentration was not measured directly as an accurate protein concentration is not required for immobilizing protein on the chip surface; however, a theoretical yield of ≤1.5 mg/mL was estimated based off of retained volumes during the desalting process. Reagents for immobilization were prepared as instructed in the Biacore™ 5200 Control Software Immobilization Wizard, including solutions of 1 M NaCl in 50 mM NaOH, and 1 M NaCl in 50 mM NaOH and 50% isopropyl alcohol. […]

[2] = tested on: THP-1 cells expressing G12D (NRAS G12D); assay: Inhibition of NRAS G12D-mediated phosphorylation of ERK (AlphaLISA p-ERK1/2) in THP-1 cells; type: cell-based; details: Homo sapiens, THP-1, 2 h, 2 hours incubation, HBSS with 0% or 10% FBS, p-ERK1/2 (Thr202/Tyr204) AlphaLISA, read-out: pERK THP-1 IC50
Outline: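 THP-1 cells expressing NRAS G12D, seeded in HBSS with 0% or 10% FBS, were exposed to test compound (1% DMSO final) for 2 h. p-ERK1/2 (Thr202/Tyr204) read by AlphaLISA SureFire Ultra. IC50 from curves normalized to no-inhibitor (100%) and 1 μM trametinib (0%) controls.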

Sequence of NRAS G12D C118S (P01111 whole entry G12D/C118S): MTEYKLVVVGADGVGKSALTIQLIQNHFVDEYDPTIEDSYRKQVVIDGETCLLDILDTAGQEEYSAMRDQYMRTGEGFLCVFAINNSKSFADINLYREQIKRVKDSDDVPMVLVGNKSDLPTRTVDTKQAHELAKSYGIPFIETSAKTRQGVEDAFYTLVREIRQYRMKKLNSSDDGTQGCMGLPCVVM

Row | SMILES | pKd [1] | pIC50 [2]
1 | C#Cc1c(F)ccc2cc(O)cc(-c3ncc4c([C@H]5[C@@H]6CNC[C@@H]65)nn(CCCN(C)C)c4c3F)c12 [Example 102, 4-(3-((1R,5S,6r)-3-azabicyclo[3.1.0]hexan-6-yl)-1-(3-(dimethylamino)propyl)-7-fluoro-1H-pyrazolo[4,3-c]pyridin-6-yl)-5-ethynyl-6-fluoronaphthalen-2-ol] | 5.12 | < 5.00
2 | C#Cc1c(F)ccc2cc(O)cc(-c3ncc4c(N5C[C@H]6CC[C@@H]5CN6)nn(C)c4c3F)c12 [Example 60, 4-(3-((1R,4R)-2,5-diazabicyclo[2.2.2]octan-2-yl)-7-fluoro-1-methyl-1H-pyrazolo[4,3-c]pyridin-6-yl)-5-ethynyl-6-fluoronaphthalen-2-ol] | 5.59 | 4.64
3 | C#Cc1c(F)ccc2cc(O)cc(-c3ncc4c([C@H]5[C@@H]6CNC[C@@H]65)nn(C5C[C@@H]5C)c4c3F)c12 (stereo partly drawn) [Example 46, 4-(3-((1R,5S,6r)-3-azabicyclo[3.1.0]hexan-6-yl)-7-fluoro-1-((1S,2S)-2-methylcyclopropyl)-1H-pyrazolo[4,3-c]pyridin-6-yl)-5-ethynyl-6-fluoronaphthalen-2-ol] | 7.22 | 5.71
4 | C#Cc1c(F)ccc2cc(O)cc(-c3ncc4c(N5C[C@@H]6CC[C@H]5CN6)nn(C)c4c3F)c12 [Example 30, 4-(3-((1S,4S)-2,5-diazabicyclo[2.2.2]octan-2-yl)-7-fluoro-1-methyl-1H-pyrazolo[4,3-c]pyridin-6-yl)-5-ethynyl-6-fluoronaphthalen-2-ol] | 7.28 | 5.93
5 | C#Cc1c(F)ccc2cc(O)cc(-c3ncc4c(N5CC6CCCC(C5)N6)nn(C)c4c3F)c12 [Example 31, 4-[3-(3,9-diazabicyclo[3.3.1]nonan-3-yl)-7-fluoro-1-methyl-pyrazolo[4,3-c]pyridin-6-yl]-5-ethynyl-6-fluoro-naphthalen-2-ol] | 5.46 | 4.74
6 | C#Cc1c(F)ccc2cc(O)cc(-c3ncc4c(N5CC6CC(C5)N6)nn(C)c4c3F)c12 [Example 34, 4-[3-(3,6-diazabicyclo[3.1.1]heptan-3-yl)-7-fluoro-1-methyl-pyrazolo[4,3-c]pyridin-6-yl]-5-ethynyl-6-fluoro-naphthalen-2-ol] | 6.21 | 5.22
7 | C#Cc1c(F)ccc2cc(O)cc(-c3nc(OC4CC(F)(F)C4)c4c([C@H]5[C@@H]6CNC[C@@H]65)nn(C5CC5)c4c3F)c12 [Example 68, 4-(3-((1R,5S,6r)-3-azabicyclo[3.1.0]hexan-6-yl)-1-cyclopropyl-4-(3,3-difluorocyclobutoxy)-7-fluoro-1H-pyrazolo[4,3-c]pyridin-6-yl)-5-ethynyl-6-fluoronaphthalen-2-ol] | 6.25 | 5.67
8 | C#Cc1c(F)ccc2cc(O)cc(-c3ncc4c(N5CC6CCC(C5)N6)cn(C5CC5)c4c3F)c12 [Example 85, 4-(3-(3,8-diazabicyclo[3.2.1]octan-3-yl)-1-cyclopropyl-7-fluoro-1H-pyrrolo[3,2-c]pyridin-6-yl)-5-ethynyl-6-fluoronaphthalen-2-ol] | 6.47 | 5.77
9 | C#Cc1c(F)ccc2cc(O)cc(-c3nc(CC)c4c(N5C[C@@H]6CC[C@H]5CN6)nn(C5CC5)c4c3F)c12 [Example 90, 4-(3-((1S,4S)-2,5-diazabicyclo[2.2.2]octan-2-yl)-1-cyclopropyl-4-ethyl-7-fluoro-1H-pyrazolo[4,3-c]pyridin-6-yl)-5-ethynyl-6-fluoronaphthalen-2-ol] | 6.97 | 6.05
10 | C#Cc1c(F)ccc2cc(O)cc(-c3nc(NC(C)C)c4c([C@H]5[C@@H]6CNC[C@@H]65)nn(C5CC5)c4c3F)c12 [Example 77, 4-(3-((1R,5S,6r)-3-azabicyclo[3.1.0]hexan-6-yl)-1-cyclopropyl-7-fluoro-4-(isopropylamino)-1H-pyrazolo[4,3-c]pyridin-6-yl)-5-ethynyl-6-fluoronaphthalen-2-ol] | 7.75 | 6.59
11 | C#Cc1c(F)ccc2cc(O)cc(-c3nc(OCC(F)(F)F)c4c([C@H]5[C@@H]6CNC[C@@H]65)nn(C5CC5)c4c3F)c12 [Example 67, 4-(3-((1R,5S,6r)-3-azabicyclo[3.1.0]hexan-6-yl)-1-cyclopropyl-7-fluoro-4-(2,2,2-trifluoroethoxy)-1H-pyrazolo[4,3-c]pyridin-6-yl)-5-ethynyl-6-fluoronaphthalen-2-ol] | 6.94 | 6.12
12 | C#Cc1c(F)ccc2cc(O)cc(-c3nc(CC)c4c([C@H]5[C@@H]6CNC[C@@H]65)nn(C5CC5)c4c3F)c12 [Example 72, 4-(3-((1R,5S,6r)-3-azabicyclo[3.1.0]hexan-6-yl)-1-cyclopropyl-4-ethyl-7-fluoro-1H-pyrazolo[4,3-c]pyridin-6-yl)-5-ethynyl-6-fluoronaphthalen-2-ol] | 9.23 | 7.61
13 | C#Cc1c(F)ccc2cc(O)cc(-c3ncc4c([C@H]5[C@@H]6CNC[C@@H]65)nn(C(C)C)c4c3F)c12 [Example 24, 4-(3-((1R,5S,6r)-3-azabicyclo[3.1.0]hexan-6-yl)-7-fluoro-1-isopropyl-1H-pyrazolo[4,3-c]pyridin-6-yl)-5-ethynyl-6-fluoronaphthalen-2-ol] | 6.08 | 4.97
14 | C#Cc1c(F)ccc2cc(O)cc(-c3nc(N(C)C(C)C)c4c([C@H]5[C@@H]6CNC[C@@H]65)nn(C5CC5)c4c3F)c12 [Example 75, 4-(3-((1R,5S,6r)-3-azabicyclo[3.1.0]hexan-6-yl)-1-cyclopropyl-7-fluoro-4-(isopropyl(methyl)amino)-1H-pyrazolo[4,3-c]pyridin-6-yl)-5-ethynyl-6-fluoronaphthalen-2-ol] | 7.60 | 6.61
15 | C#Cc1c(F)ccc2cc(O)cc(-c3nc(OCC)c4c([C@H]5[C@@H]6CNC[C@@H]65)nn(C5CC5)c4c3F)c12 [Example 63, 4-(3-((1R,5S,6r)-3-azabicyclo[3.1.0]hexan-6-yl)-1-cyclopropyl-4-ethoxy-7-fluoro-1H-pyrazolo[4,3-c]pyridin-6-yl)-5-ethynyl-6-fluoronaphthalen-2-ol] | 8.08 | 6.73
16 | C#Cc1c(F)ccc2cc(O)cc(-c3ncc4c(c(C)cn4C4=CC5CCC4CN5)c3F)c12 (stereo not shown) [Example 38, 4-[1-(2-azabicyclo[2.2.2]oct-5-en-5-yl)-4-fluoro-3-methyl-pyrrolo[2,3-c]pyridin-5-yl]-5-ethynyl-6-fluoro-naphthalen-2-ol] | 5.40 | 4.74
17 | C#Cc1c(F)ccc2cc(O)cc(-c3nc(Nc4ccccc4)c4c([C@H]5[C@@H]6CNC[C@@H]65)nn(C5CC5)c4c3F)c12 [Example 83, 4-(3-((1R,5S,6r)-3-azabicyclo[3.1.0]hexan-6-yl)-1-cyclopropyl-7-fluoro-4-(phenylamino)-1H-pyrazolo[4,3-c]pyridin-6-yl)-5-ethynyl-6-fluoronaphthalen-2-ol] | 7.31 | 6.69
